Test results taken from patent publication US20020137929A1, “1 - (3-heterocyclylphenyl) isothiourea, -isourea, -guanidine and -amidine herbicidal agents” (Intellectual Property Department, BASF Aktiengesellschaft, priority 1998, published 2002).

Key:
[1] = test system: ABUTH (Velvetleaf); experiment: Postemergence herbicidal evaluation; assay type: in vivo, Abutilon theophrasti
Summary of the method: (§1)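 ~2-wk seedlings; postemergence spray, 40 psi; vehicle 1:1 acetone:water + 0.5% Tween 20; rate ≈0.0156–0.500 kg/ha; greenhouse hold; scored 4–5 wk after treatment, 0–9 scale vs control; repeat tests averaged.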

[2] = test system: IPOHE (Morningglory, Ivyleaf); experiment: Postemergence herbicidal evaluation; assay type: in vivo, Ipomoea hederacea
Summary of the method: as §1

[3] = test system: SETVI (Foxtail, Green); experiment: Postemergence herbicidal evaluation; assay type: in vivo, Setaria viridis
Summary of the method: as §1

[4] = test system: GLXMAW (Soybean, Williams); experiment: Postemergence herbicidal evaluation; assay type: in vivo, Glycine max, (L.) Merr. cv Williams
Summary of the method: as §1

[5] = test system: ZEAMX (Corn, Field); experiment: Postemergence herbicidal evaluation; assay type: in vivo, Zea mays
Summary of the method: as §1

[6] = test system: ABUTH (Velvetleaf); experiment: Preemergence herbicidal evaluation; assay type: in vivo, Abutilon theophrasti; conditions: rated 4-5 weeks after treatment
Summary of the method: (§2)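 Visual 0-9 rating vs control (stand, vigor, malformation, size, chlorosis, overall appearance), scored 4-5 wk after spraying. Seeded soil cups were treated preemergence with compound in aqueous acetone, ~0.0156-0.500 kg/ha equivalent.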

[7] = test system: AMBEL (Ragweed, Common); experiment: Preemergence herbicidal evaluation; assay type: in vivo, Ambrosia artemisifolia; conditions: rated 4-5 weeks after treatment
Summary of the method: as §2

[8] = test system: CASOB (Sicklepod); experiment: Preemergence herbicidal evaluation; assay type: in vivo, Cassia obtusifolia; conditions: rated 4-5 weeks after treatment
Summary of the method: as §2

[9] = test system: IPOHE (Morningglory, Ivyleaf); experiment: Preemergence herbicidal evaluation; assay type: in vivo, Ipomoea hederacea; conditions: rated 4-5 weeks after treatment
Summary of the method: as §2

[10] = test system: ECHCG (Barnyardgrass); experiment: Preemergence herbicidal evaluation; assay type: in vivo, Echinochloa crus-galli; conditions: rated 4-5 weeks after treatment
Summary of the method: as §2

[11] = test system: ECHORC (Watergrass (Calif.)); experiment: Preemergence weed control under flooded paddy conditions; assay type: in vivo, Echinochloa oryzoides; conditions: 0.2500 kg/ha, rated 3-4 weeks after treatment
Summary of the method: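 Ratings on a 0-9 visual scale cover stand, vigor, malformation, size, chlorosis and overall appearance relative to a control, taken three to four weeks post-treatment. Application was into flood water over freshly sown silt loam at roughly 0.0313 to 0.500 kg/ha.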

[12] = test system: CYPSE (Flatsedge); experiment: as above; assay type: in vivo, Cyperus serotinus; conditions: 0.2500 kg/ha, rated 3-4 weeks after treatment
Summary of the method: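 Seeds or propagules sown in silt loam kept flooded 1.5-3 cm; compounds in 50/50 acetone/water pipetted into flood water at about 0.0313 to 0.500 kg/ha. Greenhouse; visual 0-9 rating versus untreated control 3-4 weeks after treatment.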

[13] = test system: ECHORC (Watergrass (Calif.)); experiment: Postemergence weed control under flooded paddy conditions; assay type: in vivo, Echinochloa oryzoides; conditions: rate 0.2500 kg/ha, postemergence weeds, 3-4 weeks after treatment
Summary of the method: (§3)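 Herbicidal effect is judged by eye on a 0–9 scale versus control, 3–4 weeks after dosing. Dosing is into flood water kept 1.5–3 cm over the soil, at about 0.0313–0.500 kg/ha in aqueous/acetone 50/50 v/v, on 3–5 cm weeds and 1.5–2.5-leaf rice seedlings.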

[14] = test system: CYPIR (Rice Flatsedge); experiment: as above; assay type: in vivo, Cyperus iria; conditions: rate 0.2500 kg/ha, postemergence weeds, 3-4 weeks after treatment
Summary of the method: as §3

Cn1c(C(F)(F)F)cc(=O)n(-c2cc(/N=C3/SCC(=O)N3CC(=O)O)c(Cl)cc2F)c1=O [Compound 52, 2-{{2-Chloro-5-[3,6-dihydro-3-methyl-2,6-dioxo-4-(trifluoromethyl)-1(2H)-pyrimidinyl]-4-fluoro-phenyl}imino}-4-oxo-3-thiazolidineacetic acid]
Postemergence herbicidal rating ABUTH ([1]; Rate 0.0158 kg/ha): 1.0
Postemergence herbicidal rating ABUTH ([1]; Rate 0.0315 kg/ha): 9.0
Postemergence herbicidal rating ABUTH ([1]; Rate 0.0630 kg/ha): 9.0
Postemergence herbicidal rating IPOHE ([2]; Rate 0.0158 kg/ha): 4.0
Postemergence herbicidal rating IPOHE ([2]; Rate 0.0315 kg/ha): 9.0
Postemergence herbicidal rating IPOHE ([2]; Rate 0.0630 kg/ha): 9.0
Postemergence herbicidal rating SETVI ([3]; Rate 0.0158 kg/ha): 1.0
Postemergence herbicidal rating SETVI ([3]; Rate 0.0315 kg/ha): 3.0
Postemergence herbicidal rating SETVI ([3]; Rate 0.0630 kg/ha): 7.0
Postemergence herbicidal rating GLXMAW ([4]; Rate 0.0158 kg/ha): 5.0
Postemergence herbicidal rating GLXMAW ([4]; Rate 0.0315 kg/ha): 6.0
Postemergence herbicidal rating GLXMAW ([4]; Rate 0.0630 kg/ha): 6.0
Postemergence herbicidal rating ZEAMX ([5]; Rate 0.0158 kg/ha): 5.0
Postemergence herbicidal rating ZEAMX ([5]; Rate 0.0315 kg/ha): 7.5
Postemergence herbicidal rating ZEAMX ([5]; Rate 0.0630 kg/ha): 7.0
Preemergence herbicidal rating ABUTH ([6]; rate 0.0313 kg/ha): 9.0
Preemergence herbicidal rating ABUTH ([6]; rate 0.0625 kg/ha): 9.0
Preemergence herbicidal rating ABUTH ([6]; rate 0.1250 kg/ha): 9.0
Preemergence herbicidal rating ABUTH ([6]; rate 0.2500 kg/ha): 9.0
Preemergence herbicidal rating AMBEL ([7]; rate 0.0313 kg/ha): 0.0
Preemergence herbicidal rating AMBEL ([7]; rate 0.0625 kg/ha): 0.0
Preemergence herbicidal rating AMBEL ([7]; rate 0.1250 kg/ha): 2.0
Preemergence herbicidal rating AMBEL ([7]; rate 0.2500 kg/ha): 3.0
Preemergence herbicidal rating CASOB ([8]; rate 0.0313 kg/ha): 0.0
Preemergence herbicidal rating CASOB ([8]; rate 0.0625 kg/ha): 0.0
Preemergence herbicidal rating CASOB ([8]; rate 0.1250 kg/ha): 1.0
Preemergence herbicidal rating CASOB ([8]; rate 0.2500 kg/ha): 1.0
Preemergence herbicidal rating IPOHE ([9]; rate 0.0313 kg/ha): 0.0
Preemergence herbicidal rating IPOHE ([9]; rate 0.0625 kg/ha): 1.0
Preemergence herbicidal rating IPOHE ([9]; rate 0.1250 kg/ha): 2.0
Preemergence herbicidal rating IPOHE ([9]; rate 0.2500 kg/ha): 9.0
Preemergence herbicidal rating ECHCG ([10]; rate 0.0313 kg/ha): 0.0
Preemergence herbicidal rating ECHCG ([10]; rate 0.0625 kg/ha): 0.0
Preemergence herbicidal rating ECHCG ([10]; rate 0.1250 kg/ha): 0.0
Preemergence herbicidal rating ECHCG ([10]; rate 0.2500 kg/ha): 1.0
Herbicidal rating ECHORC [11]: 0.0
Herbicidal rating CYPSE [12]: 0.0
Herbicidal rating ECHORC [13]: 0.0
Herbicidal rating CYPIR [14]: 2.0
